The values below come from article PMC11173765 (Molecules, 2024).

T1 sequence (Q9R0C9 whole entry): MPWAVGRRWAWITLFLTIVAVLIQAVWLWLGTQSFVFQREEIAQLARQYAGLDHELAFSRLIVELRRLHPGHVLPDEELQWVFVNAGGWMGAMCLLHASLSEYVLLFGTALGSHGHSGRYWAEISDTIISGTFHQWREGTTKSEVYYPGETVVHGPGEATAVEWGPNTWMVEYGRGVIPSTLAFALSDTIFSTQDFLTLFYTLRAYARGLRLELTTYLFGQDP

The first series has as its target T1, S1R (Rattus norvegicus, UniProt Q9R0C9).
T1 construct: liver homogenates (250 μg/sample) from male Sprague Dawley rats; from tissue; host or cells: liver homogenate of male Sprague Dawley rats
Nature of the series: S1R radioligand binding assay ([3H]-pentazocine, rat liver homogenates). Particulars: [3H]-pentazocine 2 nM, rat liver homogenates; mean ± SEM; read-out: Ki S1R. The method, then:
(§1) The S1R and S2R receptor affinities of the test compounds were evaluated in competition tests by radiometric assays.
(§2) Liver homogenates were prepared from Sprague Dawley rats (ENVIGO RMS S.R.L., Udine, Italy) for both S1R and S2R receptor binding assays. […] An Ultima Gold MV Scintillation cocktail was sourced from PerkinElmer (Milan, Italy). Other materials were obtained from Merck Life Science S.r.l. (Milan, Italy). For each compound, a10 mM DMSO stock solution was obtained. From these, diluted test concentrations ranging from 10^−5 M to 10^−11 M wereprepared using the respective assay buffer. Both assays involve the use of a tris buffer (50 mM, pH 8) and liver homogenates (250 μg/sample) from male Sprague Dawley rats. […] The final volume was 0.5 mL [54]. A millipore filter apparatus was employed to separate bound and free radioligands via filtration under conditions of reduced pressure through Whatman GF 6 glass fiber filters. Each filter paper was washed three times with 2 mL of ice-cold tris buffer (50 mM for S1R, 10 mM for S2R; pH 8.0), dried at room temperature, and incubated overnight with 2 mL of Ultima Gold MV Scintillation cocktail in pony vials. Bound radioactivity was determined using a liquid scintillation counter Beckman LS 6500 (Beckman Coulter Diagnostic, Brea, CA, USA. […]
For the compound `COc1cc2c(cc1OC)CN(CCCC(=O)c1ccc(F)cc1)CC2` [4e, 4-(6,7-Dimetoxy-3,4-dihydroisoquinolin-2(1H)-yl)-1-(4-fluorophenyl)butan-1-one], the Ki (in general, the dissociation constant of the complex between target and ligand, obtained from inhibition or displacement) is 1660 ± 118 nM.

Consider `O=C(CCCN1CCN(c2ccc(F)cc2)CC1)c1ccc(F)cc1` [4f, 1-(4-Fluorophenyl)-4-(4-(4-fluorophenyl)piperazin-1-yl)butan-1-one], for which the Ki was found to be 70.2 ± 23.2 nM.

For the compound `Cc1ccc(CN(C)CCCC(=O)c2ccc(F)cc2)c(C)c1` [4h, 4-((2,4-Dimethylbenzyl)(methyl)amino)-1-(4-fluorophenyl)butan-1-one], the Ki was 59.7 ± 7.6 nM.

For the compound `O=C(CCCN1CCC(c2ccncc2)CC1)c1ccc(F)cc1` [4i, 1-(4-Fluorophenyl)-4-(4-(pyridin-4-yl)piperidin-1-yl)butan-1-one], the Ki came out at 13.9 ± 3.11 nM.

For the compound `COc1ccc(CC2CCN(CCCC(=O)c3ccc(F)cc3)CC2)cc1OC` [4j, 4-(4-(3,4-Dimetoxybenzyl)piperidin-1-yl)-1-(4-fluorophenyl)butan-1-one], the Ki came out at 6.1 ± 0.58 nM.

The series is the same for the next values; noted with them: in words, from S1R and S2R binding affinities.
Consider `COc1cc2c(cc1OC)CN(CCCC(=O)c1ccc(F)cc1)CC2` [4e, 4-(6,7-Dimetoxy-3,4-dihydroisoquinolin-2(1H)-yl)-1-(4-fluorophenyl)butan-1-one], for which the SR subtype preference entry is recorded as “preference for S2R”.

`O=C(CCCN1CCN(c2ccc(F)cc2)CC1)c1ccc(F)cc1` [4f, 1-(4-Fluorophenyl)-4-(4-(4-fluorophenyl)piperazin-1-yl)butan-1-one]: the SR subtype preference entry is on record as “preference for S2R”.

Take `Cc1ccc(CN(C)CCCC(=O)c2ccc(F)cc2)c(C)c1` [4h, 4-((2,4-Dimethylbenzyl)(methyl)amino)-1-(4-fluorophenyl)butan-1-one]: the SR subtype preference entry was “preference for S2R”.

For `O=C(CCCN1CCC(c2ccncc2)CC1)c1ccc(F)cc1` [4i, 1-(4-Fluorophenyl)-4-(4-(pyridin-4-yl)piperidin-1-yl)butan-1-one], the SR subtype preference entry is recorded as “preference for the S1R subtype”.

For `COc1ccc(CC2CCN(CCCC(=O)c3ccc(F)cc3)CC2)cc1OC` [4j, 4-(4-(3,4-Dimetoxybenzyl)piperidin-1-yl)-1-(4-fluorophenyl)butan-1-one], the SR subtype preference entry was “preference for the S1R subtype”.

The series is the same for the next values; noted with them: selectivity ratio Ki S2R / Ki S1R.
Take `COc1cc2c(cc1OC)CN(CCCC(=O)c1ccc(F)cc1)CC2` [4e, 4-(6,7-Dimetoxy-3,4-dihydroisoquinolin-2(1H)-yl)-1-(4-fluorophenyl)butan-1-one]: the S2R/S1R was found to be 0.004.

As for `O=C(CCCN1CCN(c2ccc(F)cc2)CC1)c1ccc(F)cc1` [4f, 1-(4-Fluorophenyl)-4-(4-(4-fluorophenyl)piperazin-1-yl)butan-1-one], the S2R/S1R is given as 0.23.

As for `Cc1ccc(CN(C)CCCC(=O)c2ccc(F)cc2)c(C)c1` [4h, 4-((2,4-Dimethylbenzyl)(methyl)amino)-1-(4-fluorophenyl)butan-1-one], the S2R/S1R came out at 0.46.

Regarding `O=C(CCCN1CCC(c2ccncc2)CC1)c1ccc(F)cc1` [4i, 1-(4-Fluorophenyl)-4-(4-(pyridin-4-yl)piperidin-1-yl)butan-1-one], the S2R/S1R came to 2.03.

With `COc1ccc(CC2CCN(CCCC(=O)c3ccc(F)cc3)CC2)cc1OC` [4j, 4-(4-(3,4-Dimetoxybenzyl)piperidin-1-yl)-1-(4-fluorophenyl)butan-1-one], the S2R/S1R is on record as 25.

In the case of `Fc1ccc(-n2cc(CCCCN3CCC4(CC3)OCc3ccccc34)c3ccccc32)cc1` [SRM, siramesine, reference compound], the S2R/S1R came out at 1.2.

The next series concerns the target T2, S2R (Rattus norvegicus, UniProt Q5U3Y7).
T2 construct: liver homogenates (250 μg/sample) from male Sprague Dawley rats; from tissue; host or cells: liver homogenate of male Sprague Dawley rats
T2 sequence (Q5U3Y7 1-176): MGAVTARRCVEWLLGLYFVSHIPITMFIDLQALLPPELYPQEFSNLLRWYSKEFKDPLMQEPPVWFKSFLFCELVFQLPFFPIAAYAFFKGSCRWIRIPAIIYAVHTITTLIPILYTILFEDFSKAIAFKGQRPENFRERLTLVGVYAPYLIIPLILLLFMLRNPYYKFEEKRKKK
The series is described as follows: S2R radioligand binding assay ([3H]-DTG with (+)-pentazocine mask, rat liver homogenates). Particulars: [3H]-DTG 2 nM, (+)-pentazocine 5 μM mask, rat liver homogenates; mean ± SEM; read-out: Ki S2R. As for the experimental part:
as §1, §2
On to `COc1cc2c(cc1OC)CN(CCCC(=O)c1ccc(F)cc1)CC2` [4e, 4-(6,7-Dimetoxy-3,4-dihydroisoquinolin-2(1H)-yl)-1-(4-fluorophenyl)butan-1-one], for which the Ki was 6.93 ± 0.76 nM.

With `O=C(CCCN1CCN(c2ccc(F)cc2)CC1)c1ccc(F)cc1` [4f, 1-(4-Fluorophenyl)-4-(4-(4-fluorophenyl)piperazin-1-yl)butan-1-one], the inhibition constant Ki turned out to be 16.4 ± 3.17 nM.

With `Cc1ccc(CN(C)CCCC(=O)c2ccc(F)cc2)c(C)c1` [4h, 4-((2,4-Dimethylbenzyl)(methyl)amino)-1-(4-fluorophenyl)butan-1-one], the Ki was determined as 27.7 ± 3.03 nM.

Turning to `O=C(CCCN1CCC(c2ccncc2)CC1)c1ccc(F)cc1` [4i, 1-(4-Fluorophenyl)-4-(4-(pyridin-4-yl)piperidin-1-yl)butan-1-one], the Ki amounted to 28.3 ± 3.33 nM.

For the compound `COc1ccc(CC2CCN(CCCC(=O)c3ccc(F)cc3)CC2)cc1OC` [4j, 4-(4-(3,4-Dimetoxybenzyl)piperidin-1-yl)-1-(4-fluorophenyl)butan-1-one], the Ki amounted to 153 ± 30.3 nM.

Staying with this series, now noted: selectivity ratio Ki S1R / Ki S2R.
For the compound `COc1cc2c(cc1OC)CN(CCCC(=O)c1ccc(F)cc1)CC2` [4e, 4-(6,7-Dimetoxy-3,4-dihydroisoquinolin-2(1H)-yl)-1-(4-fluorophenyl)butan-1-one], the S1R/S2R worked out at 241.

For `O=C(CCCN1CCN(c2ccc(F)cc2)CC1)c1ccc(F)cc1` [4f, 1-(4-Fluorophenyl)-4-(4-(4-fluorophenyl)piperazin-1-yl)butan-1-one], the S1R/S2R was determined as 4.3.

Turning to `Cc1ccc(CN(C)CCCC(=O)c2ccc(F)cc2)c(C)c1` [4h, 4-((2,4-Dimethylbenzyl)(methyl)amino)-1-(4-fluorophenyl)butan-1-one], the S1R/S2R is 2.1.

On to `O=C(CCCN1CCC(c2ccncc2)CC1)c1ccc(F)cc1` [4i, 1-(4-Fluorophenyl)-4-(4-(pyridin-4-yl)piperidin-1-yl)butan-1-one], for which the S1R/S2R stood at 0.5.

With `COc1ccc(CC2CCN(CCCC(=O)c3ccc(F)cc3)CC2)cc1OC` [4j, 4-(4-(3,4-Dimetoxybenzyl)piperidin-1-yl)-1-(4-fluorophenyl)butan-1-one], the S1R/S2R came to 0.04.

For `Fc1ccc(-n2cc(CCCCN3CCC4(CC3)OCc3ccccc34)c3ccccc32)cc1` [SRM, siramesine, reference compound], the S1R/S2R stood at 0.8.

The subject of a further series is SH-SY5Y. Nature of the series: Cytotoxicity, resazurin viability assay in SH-SY5Y cells. It counts as cell-based. Particulars: Homo sapiens, 48 hrs treatment, mean ± SEM. The method, then: (§3) Cytotoxic potency was measured using a resazurin assay (see Supplementary Materials). Cells were treated with increasing concentrations of each compound for 48 hours before the cell viability was assessed (Supplementary Materials).
(§4) Dulbecco’s modified Eagle medium (DMEM; Gibco, Life Technologies, Grand Island, NY, USA), supplemented with 10% (v/v) of fetal bovine serum (FBS) and Antibiotic Antimycotic Solution (100 U penicillin, 100 μg/mL streptomycin and 0.25 μg/mL amphotericin B; Sigma-Aldrich, St. Louis, MO, USA), was used to culture the human cell lines SH-SY5Y [55] (neuroblastoma, ATCC, CRL-2266) and HUH-7 [56] (hepatocarcinoma, Japanese Cancer Research Resources Bank, National Institutes of Biomedical Innovation, Health and Nutrition, NIBIOHN, JCRB0403).
(§5) Cell viability was evaluated using resazurin (SERVA Electrophoresis GmbH, Heidelberg, Germany) as previously described.
(§6) Briefly, a resazurin stock solution (440 μM, 10× in phosphate-buffered saline) was diluted in a culture medium to prepare a 44 μM working solution. Cells (5 × 10^3) were seeded in 96-well plates, incubated with 100µl of resazurin working solution, and fluorescence was measured after 1, 2, and 3 hrs. The background fluorescence of killed cells was subtracted, and viability was calculated relative to control cells treated with DMSO solvent (1%). The fluorescence was measured using an Envision 2104 Multi-label Microplate Reader (Perkin Elmer, Boston, MA, USA) and by setting the excitation wavelength at λ = 530 nm and emission wavelength at λ = 590 nm. Measurements were performed at a time of 0 and after 1 hour of incubation. Cytotoxicity was calculated as 100% minus the percentage of viability.
(§7) Statistical analysis was carried out with GraphPad Prism® 6.0 software. An unpaired t-test was used to compare treated and control cells, with p < 0.05 considered statistically significant. The half-maximal inhibitory concentration (IC50) values for cytotoxicity were determined by analyzing dose-response curves using GraphPad Prism software.
A general note: Alamar Blue is a resazurin reagent that responds to reducing activity.
As for `COc1cc2c(cc1OC)CN(CCCC(=O)c1ccc(F)cc1)CC2` [4e, 4-(6,7-Dimetoxy-3,4-dihydroisoquinolin-2(1H)-yl)-1-(4-fluorophenyl)butan-1-one], half-maximal inhibition (IC50) was put at 120000 ± 13000 nM.

As to `COc1ccc(CC2CCN(CCCC(=O)c3ccc(F)cc3)CC2)cc1OC` [4j, 4-(4-(3,4-Dimetoxybenzyl)piperidin-1-yl)-1-(4-fluorophenyl)butan-1-one], the IC50 (as a rule, the point on the concentration scale where inhibition reaches its midpoint) was 58000 ± 7000 nM.

On to `Fc1ccc(-n2cc(CCCCN3CCC4(CC3)OCc3ccccc34)c3ccccc32)cc1` [SRM, siramesine, reference compound], for which inhibition was half-maximal at 5000 ± 1000 nM (IC50).

A further series relates to HUH-7. Nature of the series: Cytotoxicity, resazurin viability assay in HUH-7 cells. It is filed as cell-based. Particulars: Homo sapiens, 48 hrs treatment, mean ± SEM. As for the experimental part: as §3, §4, §5, §6, §7
The compound `COc1cc2c(cc1OC)CN(CCCC(=O)c1ccc(F)cc1)CC2` [4e, 4-(6,7-Dimetoxy-3,4-dihydroisoquinolin-2(1H)-yl)-1-(4-fluorophenyl)butan-1-one] registered an IC50 of 40000 ± 5000 nM.

`COc1ccc(CC2CCN(CCCC(=O)c3ccc(F)cc3)CC2)cc1OC` [4j, 4-(4-(3,4-Dimetoxybenzyl)piperidin-1-yl)-1-(4-fluorophenyl)butan-1-one]: the IC50 turned out to be 37000 ± 6000 nM.

On to `Fc1ccc(-n2cc(CCCCN3CCC4(CC3)OCc3ccccc34)c3ccccc32)cc1` [SRM, siramesine, reference compound], for which the IC50 came to 2000 ± 250 nM.

Test system in a further series: not given
Assay: not given
Conditions: not given
With `O=C(CCCN1CCN(c2ccc(F)cc2)CC1)c1ccc(F)cc1` [4f, 1-(4-Fluorophenyl)-4-(4-(4-fluorophenyl)piperazin-1-yl)butan-1-one], the melting point (in general, the temperature of the solid-liquid transition) lay within 94 to 95 °C.

`O=C(CCCN1CCC(c2ccncc2)CC1)c1ccc(F)cc1` [4i, 1-(4-Fluorophenyl)-4-(4-(pyridin-4-yl)piperidin-1-yl)butan-1-one] displayed a melting point of 102 to 104 °C.

The next series has as its target S1R.
Assay: not given
Particulars: read-out: Ki S1R; siramesine literature value; cited from earlier work.
As to `Fc1ccc(-n2cc(CCCCN3CCC4(CC3)OCc3ccccc34)c3ccccc32)cc1` [SRM, siramesine, reference compound], the Ki is 10.5 ± 2.6 nM.

For the next series, the target named is S2R.
Assay: not given
Particulars: read-out: Ki S2R; siramesine literature value; cited from earlier work.
For the compound `Fc1ccc(-n2cc(CCCCN3CCC4(CC3)OCc3ccccc34)c3ccccc32)cc1` [SRM, siramesine, reference compound], the Ki is 12.6 ± 0.1 nM.
